Experimental data reported in the supplement of paper PMC10307832.

What was measured:
Experiment in all cases: relative viability (nuclei count vs DMSO), 5 days (fraction); higher = more cells survive
ALW-II-49-7 + Pemetrexed = compound: Cc1ccc(C(=O)Nc2cccc(C(F)(F)F)c2)cc1Nc1cncc(C(N)=O)c1 [ALW-II-49-7] + Nc1nc2[nH]cc(CCc3ccc(C(=O)N[C@@H](CCC(=O)O)C(=O)O)cc3)c2c(=O)[nH]1 [Pemetrexed] (partner 0.2 µM)
Method in brief: (§1)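 Lung cancer cell lines were seeded in 1536-well plates and dosed by pin tool the next day, with either a single drug or a fixed anchor-drug dose combined with five library-drug doses (not always all listed) spaced in √10 steps. Five days later, one step fixed the cells and stained their nuclei (final 0.05% Triton X-100, 1% formaldehyde, 1 ug/ml Hoechst), and nuclei were counted on 4× images. Relative viability is the nuclei count in treated wells divided by the count in vehicle wells, and each value is the median of duplicate plates.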

XMD13-2 + Foretinib = compound: C1CC1C(=O)NC2=NNC3=C2C=CC(=C3)C4=CC(=CC=C4)C(=O)NC5CC5 [XMD13-2] + COc1cc2c(Oc3ccc(NC(=O)C4(C(=O)Nc5ccc(F)cc5)CC4)cc3F)ccnc2cc1OCCCN1CCOCC1 [Foretinib] (partner 0.25 µM)
Method in brief: as §1

Dasatinib + OSI-027 = compound: Cc1nc(Nc2ncc(C(=O)Nc3c(C)cccc3Cl)s2)cc(N2CCN(CCO)CC2)n1 [Dasatinib] + COc1cccc2cc(-c3nc([C@H]4CC[C@H](C(=O)O)CC4)n4ncnc(N)c34)[nH]c12 [OSI-027] (partner 0.5 µM)
Method in brief: as §1

ALW-II-49-7 + Alpelisib = compound: Cc1ccc(C(=O)Nc2cccc(C(F)(F)F)c2)cc1Nc1cncc(C(N)=O)c1 [ALW-II-49-7] + Cc1nc(NC(=O)N2CCC[C@H]2C(N)=O)sc1-c1ccnc(C(C)(C)C(F)(F)F)c1 [Alpelisib] (partner 2 µM)
Method in brief: as §1

Cell Line	relative viability (ALW-II-49-7 + Pemetrexed; first compound 0.08 µM)	relative viability (ALW-II-49-7 + Pemetrexed; first compound 0.253 µM)	relative viability (ALW-II-49-7 + Pemetrexed; first compound 0.8 µM)	relative viability (ALW-II-49-7 + Pemetrexed; first compound 2.53 µM)	relative viability (ALW-II-49-7 + Pemetrexed; first compound 8 µM)	relative viability (XMD13-2 + Foretinib; first compound 0.05 µM)	relative viability (XMD13-2 + Foretinib; first compound 0.1581 µM)	relative viability (XMD13-2 + Foretinib; first compound 0.5 µM)	relative viability (XMD13-2 + Foretinib; first compound 1.581 µM)	relative viability (XMD13-2 + Foretinib; first compound 5 µM)	relative viability (Dasatinib + OSI-027; first compound 0.005 µM)	relative viability (Dasatinib + OSI-027; first compound 0.01581 µM)	relative viability (Dasatinib + OSI-027; first compound 0.05 µM)	relative viability (Dasatinib + OSI-027; first compound 0.1581 µM)	relative viability (Dasatinib + OSI-027; first compound 0.5 µM)	relative viability (ALW-II-49-7 + Alpelisib; first compound 0.08 µM)	relative viability (ALW-II-49-7 + Alpelisib; first compound 0.253 µM)	relative viability (ALW-II-49-7 + Alpelisib; first compound 0.8 µM)	relative viability (ALW-II-49-7 + Alpelisib; first compound 2.53 µM)	relative viability (ALW-II-49-7 + Alpelisib; first compound 8 µM)
RERF-LC-KJ	0.475	0.518	0.472	0.439	0.478	0.871	0.869	0.87	0.795	0.844	0.576	0.475	0.514	0.382	0.376	0.785	0.567	0.754	0.745	0.882
NCI-H1755	0.456	0.48	0.4	0.416	0.403	1.04	0.871	0.939	0.86	0.937	0.679	0.604	0.507	0.384	0.191	0.931	0.965	0.909	0.807	0.818
PC-14	0.15	0.165	0.13	0.138	0.113	1.04	0.947	0.981	0.995	0.976	0.99	0.772	0.679	0.384	0.0679	0.833	0.541	0.838	0.911	0.828
NCI-H322M	0.609	0.79	0.659	0.682	0.537	1.06	1.02	0.909	0.971	1.09	0.549	0.483	0.351	0.213	0.168	0.724	0.739	0.957	0.759	0.8
NCI-H1666	0.783	0.944	0.831	0.847	0.785	1.12	0.998	0.913	0.926	0.982	0.915	0.843	0.849	0.733	0.486	1.05	1.07	0.853	0.951	0.868
A-427	0.982	1.11	0.926	1.02	1.06	1.23	1.08	1.05	1.02	0.745	0.464	0.338	0.411	0.342	0.37	1.25	1.06	1.13	1.21	1.12
NCI-H1651	0.5	0.631	0.615	0.574	0.441	0.866	0.808	0.799	0.744	0.827	0.801	0.503	0.529	0.572	0.487	1.01	0.832	0.746	0.919	0.835
NCI-H1793	1.05	0.806	1.08	0.868	0.734	0.84		0.966	0.791	0.68	0.2	0.238	0.234	0.218	0.147	0.717	0.673	0.752	0.716	0.884
NCI-H520	0.655	0.673	0.724	0.666	0.558	0.876	0.754	0.536	0.637	0.402	0.24	0.144	0.158	0.151	0.133	0.799	0.865		0.964	0.954
201T	0.321	0.365	0.287	0.346	0.381	1.28	1.09	1.12	1.15	1.16	0.662	0.567	0.597	0.386	0.211	1	1.02	1.02	0.992	1.02
NCI-H460	0.0507	0.0651	0.0651	0.0782	0.0738	1.1	1.11	1.05	1.06	1.01	0.549	0.474	0.405	0.387	0.17	0.513	0.542	0.323	0.453	0.395
NCI-H596	0.449	0.47	0.469	0.503	0.444	0.89	0.62	1.03	0.852	0.888	0.656	0.632	0.547	0.479	0.306	0.443	0.513	0.497	0.469	0.438
HARA	0.235	0.288	0.247	0.277	0.218	1.1	0.854	0.834	1.01	0.616	0.339	0.4	0.375	0.156	0.0755	0.904	0.883	0.844	0.834	0.987
NCI-H2170	0.283	0.275	0.244	0.302	0.285	0.937	0.97	1.03	0.9	0.984	0.71	0.635	0.711	0.568	0.323	0.723	0.762	0.751	0.867	0.793
NCI-H2126	0.733	0.708	0.654	0.661	0.755	1.16	1.18	1.16	1.29	1.1	0.722	0.551	0.623	0.611	0.307	0.713	0.723	0.726	0.763	0.738
HCC-827	0.275	0.259	0.173	0.176	0.25	1.11	1.04	0.951	1.05	0.704	0.805	0.745	0.557	0.456	0.119	0.949	1.08	0.945	0.94	0.897
